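Dose response: 5 concentrations. Exposure: 48 h. Format: 96-well plates. Endpoint: linear interpolation; highest concentration if not reached. TGI: concentration producing complete growth inhibition.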
What was measured:
Assay in all cases: inhibition of tumour cell growth, NCI panel, 48 h
[1] = test system: DU-145 prostate
[2] = test system: OVCAR-3 ovarian
[3] = test system: IGROV1 ovarian
[4] = test system: SNB-75 CNS
[5] = test system: HCT-116 colon
[6] = test system: K-562 leukemia
[7] = test system: CCRF-CEM leukemia
[8] = test system: A549 NSCLC
[9] = test system: SF-539 CNS
[10] = test system: NCI-H23 lung
[11] = test system: MDA-MB-231 breast
[12] = test system: OVCAR-4 ovarian
[13] = test system: SK-MEL-5 melanoma
[14] = test system: SK-OV-3 ovarian
[15] = test system: RPMI-8226 leukemia
[16] = test system: SK-MEL-2 melanoma
[17] = test system: OVCAR-5 ovarian
[18] = test system: MDA-N
[19] = test system: 786-0 renal
[20] = test system: NCI-H226 lung

| SMILES | TGI [1] [µM] | TGI [2] [µM] | TGI [3] [µM] | TGI [4] [µM] | TGI [5] [µM] | TGI [6] [µM] | TGI [7] [µM] | TGI [8] [µM] | TGI [9] [µM] | TGI [10] [µM] | TGI [11] [µM] | TGI [12] [µM] | TGI [13] [µM] | TGI [14] [µM] | TGI [15] [µM] | TGI [16] [µM] | TGI [17] [µM] | TGI [18] [µM] | TGI [19] [µM] | TGI [20] [µM] |
| --- | --- | --- | --- | --- | --- | --- | --- | --- | --- | --- | --- | --- | --- | --- | --- | --- | --- | --- | --- | --- |
| O/N=C(/CC(O)(C(F)(F)F)C(F)(F)F)c1ccccc1 | > 10 | > 10 | > 10 | > 10 | > 10 | > 10 | > 10 | > 10 | > 10 | > 10 | > 10 | > 10 | > 10 | > 10 | > 10 | > 10 | > 10 | > 10 | > 10 | > 10 |
| Cc1cc2nc(C=C(C(F)(F)F)C(F)(F)F)sc2cc1C | 10.2 | 5.63 | 7.78 | 10.3 | 2.93 | > 100 | > 100 | 26.7 | 4.31 | 3.5 | 23.9 | 14.9 | 8.77 | 32.7 | 1.41 | 5.27 | 8.66 | > 19.8 | 5.17 | 6.79 |
| CCOC(=O)CC1(Cc2ccc(OCc3ccccc3)cc2)C(=O)OC(c2ccccc2)N1C(=O)c1ccccc1 (configuration not stated) | > 100 | > 100 | > 100 |  | > 100 | > 100 | > 100 | > 100 | > 100 | > 100 | > 100 | > 100 | > 100 | > 100 | > 100 | > 100 | > 100 | > 100 | > 100 | > 100 |
| O=C(O)c1ccccc1CC1Cc2cc3c(cc2C1)CCC3 | > 100 | > 100 | > 100 | > 100 | > 100 | > 100 | > 100 | > 100 | > 100 | > 100 | > 100 | > 100 | > 100 | > 100 | > 100 | > 100 | > 100 | > 100 | > 100 | > 100 |
| CCC/C(Cl)=N/OC(=O)Nc1cc(C(F)(F)F)ccc1OC | 30 | 30.3 | 30.7 | 28.5 | 22.8 |  | > 20.7 | 34.6 | 28.6 | 37.2 | 27 | 9.75 | 19.9 | 21.8 | 6.05 | 31.5 | 32.1 | 25 | 18.6 | 30.8 |
| O=[N+]([O-])c1cccc(-c2ncc3c(n2)-c2ccccc2C3)c1 | > 100 |  | > 100 | > 100 | > 100 | > 100 | > 100 | > 100 | > 100 | > 100 | > 100 | > 100 | > 100 | > 100 | > 100 | > 100 | > 100 | > 100 | > 100 | > 100 |

From PubChem BioAssay (NCI)
